The record followed here is ChEMBL document CHEMBL1201862, “PubChem BioAssay data set” (2004).

Assay [1] deals with T1, Kappa-type opioid receptor (Homo sapiens, UniProt P41145). The format is functional.
Assay [2] addresses T2, Delta-type opioid receptor (Homo sapiens, UniProt P41143). As to the kind of experiment: HTS Image-Based Screen for Antagonists of the DOR Receptor. [Related pubchem assays (depositor defined):AID1777, AID1785, AID1786, AID2133]. It counts as functional.
The target in assay [3] is Bifunctional protein GlmU (Mycobacterium tuberculosis, UniProt P9WMN3). As to the kind of experiment: Inhibitors of Mycobacterial Glucosamine-1-phosphate acetyl transferase (GlmU). Secondary screen. Further details: species or system Mycobacterium tuberculosis H37Rv.
Sequence of Bifunctional protein GlmU (P9WMN3 whole entry): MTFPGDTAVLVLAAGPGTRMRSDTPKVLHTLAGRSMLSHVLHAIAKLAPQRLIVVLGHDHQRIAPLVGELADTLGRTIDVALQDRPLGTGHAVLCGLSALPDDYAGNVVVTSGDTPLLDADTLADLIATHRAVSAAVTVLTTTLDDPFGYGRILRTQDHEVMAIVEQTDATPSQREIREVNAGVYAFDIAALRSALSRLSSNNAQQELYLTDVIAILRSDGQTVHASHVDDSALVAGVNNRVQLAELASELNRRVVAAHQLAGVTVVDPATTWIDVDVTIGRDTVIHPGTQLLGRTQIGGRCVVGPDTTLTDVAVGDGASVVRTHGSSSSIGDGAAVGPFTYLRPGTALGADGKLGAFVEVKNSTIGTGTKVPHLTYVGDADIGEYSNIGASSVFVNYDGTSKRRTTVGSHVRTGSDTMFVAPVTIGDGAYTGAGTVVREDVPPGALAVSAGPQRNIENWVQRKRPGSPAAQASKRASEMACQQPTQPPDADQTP
The nature of a further assay: cells. The format is functional.
Assay [4] in a line: growth suppression of beta-catenin-knockout colon cells, dose response, cell-based, HCT116, human colon tumor (AID 1045).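 Also: HCT116 colon tumor cells with beta catenin knocked out; cells exposed to compound for 60 hours.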 It counts as functional.
Another assay deals with Beta-galactosidase (Escherichia coli, UniProt Q8VNN2). It counts as functional.
Sequence of Beta-galactosidase (Q8VNN2 whole entry): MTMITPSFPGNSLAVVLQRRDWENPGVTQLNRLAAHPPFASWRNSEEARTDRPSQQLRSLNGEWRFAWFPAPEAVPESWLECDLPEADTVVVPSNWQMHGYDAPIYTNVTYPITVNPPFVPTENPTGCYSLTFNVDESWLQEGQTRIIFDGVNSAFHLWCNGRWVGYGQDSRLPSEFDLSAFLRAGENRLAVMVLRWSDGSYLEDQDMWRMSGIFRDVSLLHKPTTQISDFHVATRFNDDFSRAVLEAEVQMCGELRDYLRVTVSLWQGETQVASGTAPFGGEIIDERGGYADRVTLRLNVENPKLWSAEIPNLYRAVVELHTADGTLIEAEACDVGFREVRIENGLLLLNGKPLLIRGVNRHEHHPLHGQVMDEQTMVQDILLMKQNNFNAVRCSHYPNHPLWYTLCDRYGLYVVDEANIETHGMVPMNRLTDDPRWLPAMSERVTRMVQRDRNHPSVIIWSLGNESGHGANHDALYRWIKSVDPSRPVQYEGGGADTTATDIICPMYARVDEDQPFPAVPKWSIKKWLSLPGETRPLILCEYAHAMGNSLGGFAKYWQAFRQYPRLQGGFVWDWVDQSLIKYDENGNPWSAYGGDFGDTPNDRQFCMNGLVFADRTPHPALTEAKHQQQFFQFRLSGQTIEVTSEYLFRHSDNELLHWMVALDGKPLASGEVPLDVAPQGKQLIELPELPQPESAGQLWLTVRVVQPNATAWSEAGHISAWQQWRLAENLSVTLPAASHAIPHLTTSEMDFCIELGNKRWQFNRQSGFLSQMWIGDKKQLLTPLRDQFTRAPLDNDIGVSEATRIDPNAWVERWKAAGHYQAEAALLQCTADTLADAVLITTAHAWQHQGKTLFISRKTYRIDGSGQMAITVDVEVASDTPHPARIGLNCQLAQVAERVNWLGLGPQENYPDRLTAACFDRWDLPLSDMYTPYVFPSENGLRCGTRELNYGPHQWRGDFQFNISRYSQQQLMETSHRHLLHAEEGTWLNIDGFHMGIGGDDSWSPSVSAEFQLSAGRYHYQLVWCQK
The nature of assay [5]: HepG2 cell cytotoxicity, dose response, cytotoxicity control for Shn3 inhibitor project, CellTiter-Glo, cherry-picked (AID 624134). The format is functional, cell-based. Background: ATP-based viability assays read luminescence as a measure of living cells.
Another assay deals with T3, Protein RecA (Mycobacterium tuberculosis, UniProt P9WHJ3).
T3 sequence (P9WHJ3 whole entry): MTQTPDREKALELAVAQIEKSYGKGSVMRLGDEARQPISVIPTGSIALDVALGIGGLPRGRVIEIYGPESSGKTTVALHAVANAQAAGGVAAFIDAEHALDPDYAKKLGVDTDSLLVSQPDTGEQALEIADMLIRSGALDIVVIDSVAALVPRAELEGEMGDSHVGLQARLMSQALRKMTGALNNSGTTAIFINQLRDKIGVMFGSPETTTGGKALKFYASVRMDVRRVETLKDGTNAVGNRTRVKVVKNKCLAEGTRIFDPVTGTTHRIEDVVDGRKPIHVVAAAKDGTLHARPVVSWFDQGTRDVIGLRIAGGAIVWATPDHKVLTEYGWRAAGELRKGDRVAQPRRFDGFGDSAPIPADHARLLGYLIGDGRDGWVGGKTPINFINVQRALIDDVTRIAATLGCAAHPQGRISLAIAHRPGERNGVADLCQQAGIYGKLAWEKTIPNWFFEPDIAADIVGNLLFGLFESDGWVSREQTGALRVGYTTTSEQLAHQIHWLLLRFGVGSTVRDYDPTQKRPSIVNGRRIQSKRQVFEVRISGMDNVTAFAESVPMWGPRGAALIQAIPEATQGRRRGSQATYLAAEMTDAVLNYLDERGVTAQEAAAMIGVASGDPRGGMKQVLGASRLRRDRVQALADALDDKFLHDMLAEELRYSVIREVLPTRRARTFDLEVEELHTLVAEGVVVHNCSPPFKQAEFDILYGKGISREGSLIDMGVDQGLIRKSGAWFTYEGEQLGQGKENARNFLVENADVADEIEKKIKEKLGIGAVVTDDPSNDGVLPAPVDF
As to the kind of experiment: Fluorescence Cell-Free Homogeneous Dose Retest to Identify Inhibitors of RecA-Intein Splicing Activity. [Related pubchem assays (depositor defined):AID2097, AID2223, AID489010, AID492950]. The format is functional.

The next assay has as its system CHO. As to the kind of experiment: cytotoxicity in TLR9-MyD88 CHO cells, dose response, cytotoxicity control for TLR9-MyD88 binding inhibitor project, cell-based, luminescence (AID 588339).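 Also: CHO cells stably coexpressing TLR9 and MyD88 fusions from primary screen; compound exposure lasted 48 hours before viability readout.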 It counts as functional, hamster. As to conditions: Cricetulus griseus.
The target of assay [6] is T4, Replicative DNA helicase DnaB (Mycobacterium tuberculosis, UniProt P9WMR3).
T4 sequence (P9WMR3 whole entry): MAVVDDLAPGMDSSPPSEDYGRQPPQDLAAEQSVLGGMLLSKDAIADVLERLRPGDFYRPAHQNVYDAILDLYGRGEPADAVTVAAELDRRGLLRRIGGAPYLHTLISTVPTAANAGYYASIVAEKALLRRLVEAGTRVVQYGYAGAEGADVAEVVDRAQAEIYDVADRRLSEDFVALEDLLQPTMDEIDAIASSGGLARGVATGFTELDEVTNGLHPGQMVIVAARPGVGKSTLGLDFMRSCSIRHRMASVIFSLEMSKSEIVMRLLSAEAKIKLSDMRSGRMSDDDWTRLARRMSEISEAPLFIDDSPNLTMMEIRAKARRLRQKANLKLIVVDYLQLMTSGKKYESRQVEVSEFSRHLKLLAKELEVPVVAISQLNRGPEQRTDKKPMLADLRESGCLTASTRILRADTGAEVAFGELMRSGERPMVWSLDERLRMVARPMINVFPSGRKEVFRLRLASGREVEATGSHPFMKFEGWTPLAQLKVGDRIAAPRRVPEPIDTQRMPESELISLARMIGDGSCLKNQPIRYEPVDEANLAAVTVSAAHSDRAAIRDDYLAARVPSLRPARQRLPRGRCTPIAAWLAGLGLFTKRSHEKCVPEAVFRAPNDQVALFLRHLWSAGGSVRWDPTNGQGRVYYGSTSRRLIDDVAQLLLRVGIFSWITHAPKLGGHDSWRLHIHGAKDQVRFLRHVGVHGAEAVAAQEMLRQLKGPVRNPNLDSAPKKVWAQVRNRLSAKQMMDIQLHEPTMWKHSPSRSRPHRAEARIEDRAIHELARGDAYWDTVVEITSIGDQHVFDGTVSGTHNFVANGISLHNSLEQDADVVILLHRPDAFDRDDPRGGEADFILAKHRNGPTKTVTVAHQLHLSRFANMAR
As to the kind of experiment: DnaB intein splicing inhibitors, dose response, biochemical, cell-free fluorescence (AID 449749). It counts as functional.

In assay [7] the target is T2, Delta-type opioid receptor. As to the kind of experiment: HTS Image-Based Screen for Agonists of the DOR Receptor. [Related pubchem assays (depositor defined):AID1777, AID1786, AID2133]. The format is functional.
The target of assay [8] is T5, Fatty acid synthase (Homo sapiens, UniProt P49327). As to the kind of experiment: FAS thioesterase domain inhibitors, dose response, biochemical, kinetic fluorescence intensity (AID 624326).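 Also: rate of fluorescence rise from hydrolysis of a fluorogenic O-methyl fluorescein ester substrate.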 The format is functional.
T5 sequence (P49327 whole entry, the tested form may be a part): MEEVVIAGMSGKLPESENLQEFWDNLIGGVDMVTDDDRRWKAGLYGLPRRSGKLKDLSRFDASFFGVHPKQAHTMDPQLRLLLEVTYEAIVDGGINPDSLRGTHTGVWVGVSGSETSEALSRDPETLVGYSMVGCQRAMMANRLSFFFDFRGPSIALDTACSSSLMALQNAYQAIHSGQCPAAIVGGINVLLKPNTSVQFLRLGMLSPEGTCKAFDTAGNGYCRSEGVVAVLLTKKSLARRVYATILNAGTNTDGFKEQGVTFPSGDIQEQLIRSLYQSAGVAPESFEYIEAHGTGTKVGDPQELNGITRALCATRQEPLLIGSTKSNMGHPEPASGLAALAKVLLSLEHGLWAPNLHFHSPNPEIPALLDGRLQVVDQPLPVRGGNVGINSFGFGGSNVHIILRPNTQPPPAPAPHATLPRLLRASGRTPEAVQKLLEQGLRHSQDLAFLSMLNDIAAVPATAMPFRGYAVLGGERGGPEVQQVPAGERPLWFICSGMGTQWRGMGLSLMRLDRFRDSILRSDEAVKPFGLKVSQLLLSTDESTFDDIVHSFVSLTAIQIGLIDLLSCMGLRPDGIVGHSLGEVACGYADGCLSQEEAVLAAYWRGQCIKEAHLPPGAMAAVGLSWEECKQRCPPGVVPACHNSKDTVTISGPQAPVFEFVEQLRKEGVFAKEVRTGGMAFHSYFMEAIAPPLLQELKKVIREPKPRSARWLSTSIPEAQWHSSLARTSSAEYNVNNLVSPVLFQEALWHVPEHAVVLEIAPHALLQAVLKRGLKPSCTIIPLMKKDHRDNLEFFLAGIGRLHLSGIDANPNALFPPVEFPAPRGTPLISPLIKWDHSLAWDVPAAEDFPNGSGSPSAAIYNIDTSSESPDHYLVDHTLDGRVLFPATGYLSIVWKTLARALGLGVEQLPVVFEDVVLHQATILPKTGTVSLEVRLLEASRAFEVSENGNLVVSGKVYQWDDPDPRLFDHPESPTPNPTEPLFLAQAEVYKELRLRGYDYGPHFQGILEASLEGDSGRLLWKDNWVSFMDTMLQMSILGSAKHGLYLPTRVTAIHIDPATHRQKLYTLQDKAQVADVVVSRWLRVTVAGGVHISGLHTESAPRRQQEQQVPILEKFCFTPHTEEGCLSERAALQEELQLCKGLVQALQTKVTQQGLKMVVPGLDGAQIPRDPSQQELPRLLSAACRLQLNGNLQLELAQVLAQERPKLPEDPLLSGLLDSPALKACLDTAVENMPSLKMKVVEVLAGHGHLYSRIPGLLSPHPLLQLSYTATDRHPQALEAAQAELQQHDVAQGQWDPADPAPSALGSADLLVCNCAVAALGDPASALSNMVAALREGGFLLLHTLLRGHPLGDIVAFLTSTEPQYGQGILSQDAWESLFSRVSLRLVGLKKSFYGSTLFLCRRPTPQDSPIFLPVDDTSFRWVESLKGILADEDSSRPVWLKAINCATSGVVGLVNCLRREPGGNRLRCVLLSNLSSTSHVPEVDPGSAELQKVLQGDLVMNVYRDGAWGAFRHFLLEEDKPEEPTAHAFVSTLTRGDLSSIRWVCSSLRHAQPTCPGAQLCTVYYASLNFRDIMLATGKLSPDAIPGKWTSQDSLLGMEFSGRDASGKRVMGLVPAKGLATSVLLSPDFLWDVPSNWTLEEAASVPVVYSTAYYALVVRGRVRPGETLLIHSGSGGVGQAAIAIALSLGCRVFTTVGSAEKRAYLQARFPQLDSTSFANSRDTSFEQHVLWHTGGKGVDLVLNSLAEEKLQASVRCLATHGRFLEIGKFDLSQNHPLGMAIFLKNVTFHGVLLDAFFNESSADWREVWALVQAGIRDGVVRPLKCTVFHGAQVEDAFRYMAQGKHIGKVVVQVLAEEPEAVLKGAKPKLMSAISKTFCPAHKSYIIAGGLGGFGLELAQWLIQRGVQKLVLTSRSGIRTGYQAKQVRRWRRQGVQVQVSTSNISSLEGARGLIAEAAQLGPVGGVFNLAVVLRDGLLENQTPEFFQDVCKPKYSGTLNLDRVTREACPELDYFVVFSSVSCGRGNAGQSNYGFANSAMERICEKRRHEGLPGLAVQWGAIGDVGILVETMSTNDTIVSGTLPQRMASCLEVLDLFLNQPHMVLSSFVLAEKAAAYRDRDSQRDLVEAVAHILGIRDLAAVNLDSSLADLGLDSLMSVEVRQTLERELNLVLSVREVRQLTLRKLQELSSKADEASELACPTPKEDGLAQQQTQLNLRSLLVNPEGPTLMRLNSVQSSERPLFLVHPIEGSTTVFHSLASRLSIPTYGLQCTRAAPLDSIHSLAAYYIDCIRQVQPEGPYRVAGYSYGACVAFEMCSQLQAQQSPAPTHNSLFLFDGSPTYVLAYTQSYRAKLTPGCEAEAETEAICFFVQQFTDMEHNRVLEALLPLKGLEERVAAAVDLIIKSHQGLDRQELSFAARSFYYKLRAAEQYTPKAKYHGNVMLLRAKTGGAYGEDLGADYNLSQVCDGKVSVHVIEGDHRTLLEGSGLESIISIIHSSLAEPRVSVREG
The target in the next assay is Beta Lactamase (Pseudomonas aeruginosa, UniProt Q932Y6). As to the kind of experiment: beta-lactamase reporter inhibitor potency, dose response, artefact control for TLR9-MyD88 binding inhibitor project, BLA reporter cells, FRET fluorescence (AID 588341).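 Also: cell based assay in CHO-K1 cells stably expressing beta-lactamase.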 It counts as cell-based.
Sequence of Beta Lactamase (Q932Y6 whole entry, the tested form may be a part): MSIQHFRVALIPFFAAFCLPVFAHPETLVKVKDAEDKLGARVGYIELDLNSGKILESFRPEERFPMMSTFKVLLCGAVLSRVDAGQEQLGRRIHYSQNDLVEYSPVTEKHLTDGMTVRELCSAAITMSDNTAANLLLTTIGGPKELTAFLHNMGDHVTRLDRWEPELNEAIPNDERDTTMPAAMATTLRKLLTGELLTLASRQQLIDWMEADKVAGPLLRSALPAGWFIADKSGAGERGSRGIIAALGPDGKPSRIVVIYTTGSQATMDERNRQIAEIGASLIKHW
In assay [9] the target is T5, Fatty acid synthase. As to the kind of experiment: FAS thioesterase domain inhibitors, dose response, biochemical, endpoint fluorescence intensity, uHTS hits (AID 624327).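 Also: fluorescence from hydrolysis of an O-methyl fluorescein acyl ester substrate by the enzyme.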 The format is functional.
The target of another assay is Mu-type opioid receptor (Homo sapiens, UniProt P35372). As to the kind of experiment: HTS Image-Based Screen for Agonists of the MOR Receptor. [Related pubchem assays (depositor defined):AID1777, AID1785, AID1786, AID2133]. It counts as functional.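 Also: imaging of beta-arrestin GFP recruitment into spots after receptor activation.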
Assay [10] is described as follows: THP-1 cell cytotoxicity, dose response, cytotoxicity control for non-replicating M. tuberculosis project (AID 489025). It counts as functional.
Another assay deals with BJ. As to the kind of experiment: cytotoxicity toward Ras-transformed BJeLR fibroblasts, dose response, cell-based, alamar blue fluorescence, cherrypicked samples (AID 2631).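 Also: confirmatory dose-response assay in RAS-dependent BJ fibroblasts engineered with TERT, LT and ST, with cytotoxicity read by fluorescence.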 It counts as functional. As to conditions: Homo sapiens. For orientation: The colour change of resazurin is a common sign of viable cells or microbes.
The nature of assay [11]: control 3'UTR Renilla luciferase suppression, dose response, counter-screen for Shn3 inhibitor project, cell-based, Clone20-Shn3RL, cherry-picked (AID 624133). The format is functional.
Assay [12] is described as follows: HepG2 cell cytotoxicity, dose response, cytotoxicity control for non-replicating M. tuberculosis project (AID 489018). As to conditions: Mycobacterium tuberculosis. The format is functional.
Assay [13] concerns the target T1, Kappa-type opioid receptor. It counts as functional. The source holds these as a separate data set.
Assay [14] is described as follows: Shn3 3'UTR reporter inhibitors, dose response, cell-based, Clone20 osteoblasts, firefly luciferase, cherry-picked (AID 624132).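 Also: firefly luciferase luminescence from reporter carrying the Shn3 3'UTR in osteoblasts.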 The format is functional.
A short description of assay [15]: Vero E6 cell cytotoxicity, dose response, cytotoxicity control for non-replicating M. tuberculosis project, secondary assay (AID 492998). It counts as functional, VeroE6. As to conditions: Vero C1008.
Assay [16] in a line: growth suppression of PTEN-null colon cells, dose response, cell-based, HCT116 PTEN knockout (AID 1047).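 Also: HCT116 colon tumor cells with PTEN knocked out; cells exposed to compound for 60 hours before readout; potency for loss of cell viability measured by luminescence.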 It counts as functional.
Assay [17] in a line: cytotoxicity in HMLE control line with eGFP shRNA, dose response, counter-screen for HMLE_sh_ECad selective toxicity project, cell-based, HMLE_sh_eGFP, luminescence (AID 463074).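 Also: HMLE human mammary epithelial cells expressing control shRNA against eGFP.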 It counts as functional, Homo sapiens.
Assay [18] can be described thus: Luminescence Cell-Based Dose Retest to Confirm Inhibitors of Cancer Stem Cells. [Related pubchem assays (depositor defined):AID2717, AID2721]. As to conditions: Homo sapiens. It counts as functional.
The nature of assay [19]: Luminescence Cell-Based Secondary HTS screen to identify cytotoxic compounds of NIH3T3 cells. [Related pubchem assays: 1885, 1968 ]. It counts as functional.
Assay [20] is described as follows: cytotoxicity toward NIH3T3 fibroblasts, dose response, counter-screen, cell-based, ATP luminescence, mouse fibroblasts (AID 2010).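 Also: cells exposed to compound for about 90 hours before reading.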 The format is functional. (The purpose of a counterscreen is to sort out artefacts and off-target activity.)
The nature of assay [21]: inhibitors of Trypanosoma cruzi host-cell infection, confirmation, beta-gal luminescence, NIH3T3 host cells (AID 2630). As to conditions: Mus musculus. It counts as functional, cell-based.
Assay [22] is described as follows: Luminescence Cell-Based/Microorganism Confirmation at Dose of Inhibitors of Trypanosoma cruzi Infection. [Related pubchem assays: 1885, 1968 ]. It counts as functional.
Assay [23] can be described thus: inhibitors of intracellular T. cruzi replication, confirmation, NIH3T3 host cells, beta-gal luminescence (AID 2044).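 Also: intracellular parasites grown in NIH/3T3 mouse fibroblasts as host cells; luminescent beta-galactosidase reporter signal from transgenic T. cruzi replicating inside host cells; inhibitors lower the luminescence signal.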 It counts as functional, cell-based.

Structures are written as SMILES. pIC50: −log10 of the molar value. Calls of active or inactive are those of the source.

T1 sequence (P41145 whole entry): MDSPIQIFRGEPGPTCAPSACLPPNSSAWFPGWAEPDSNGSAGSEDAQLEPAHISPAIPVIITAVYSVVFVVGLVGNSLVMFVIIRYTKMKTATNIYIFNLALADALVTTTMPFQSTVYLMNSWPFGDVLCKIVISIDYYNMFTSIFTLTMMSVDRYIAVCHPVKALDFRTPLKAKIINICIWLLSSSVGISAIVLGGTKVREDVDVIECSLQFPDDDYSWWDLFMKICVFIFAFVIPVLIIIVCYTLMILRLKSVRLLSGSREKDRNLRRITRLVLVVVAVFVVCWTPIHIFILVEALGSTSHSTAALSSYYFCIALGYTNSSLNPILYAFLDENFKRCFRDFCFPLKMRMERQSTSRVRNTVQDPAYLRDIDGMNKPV
T2 sequence (P41143 whole entry): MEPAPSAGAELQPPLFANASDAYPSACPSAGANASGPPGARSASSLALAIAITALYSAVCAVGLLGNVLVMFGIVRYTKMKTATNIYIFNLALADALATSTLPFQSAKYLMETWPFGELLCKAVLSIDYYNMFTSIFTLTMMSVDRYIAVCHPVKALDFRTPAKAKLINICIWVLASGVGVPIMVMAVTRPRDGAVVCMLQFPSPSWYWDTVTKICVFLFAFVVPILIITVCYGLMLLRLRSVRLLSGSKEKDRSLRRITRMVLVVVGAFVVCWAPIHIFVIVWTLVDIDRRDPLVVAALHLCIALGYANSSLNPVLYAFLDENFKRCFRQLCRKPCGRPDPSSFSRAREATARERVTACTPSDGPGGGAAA

For orientation: IC50 means the concentration that gives 50% inhibition. What is called EC50 is the concentration that produces a half-maximal response. By AC50 is commonly meant the concentration giving half of the maximal activity seen. By CC50 is commonly meant the concentration that lowers cell viability or growth by half. What is called pIC50 is −log10 of the IC50, conventionally taken in molar units. A higher pIC50 goes with a small IC50. Regarding `CCCC(=O)OCCNc1cc(Sc2nccn2C)c2nonc2c1[N+](=O)[O-]`, the half-inhibitory concentration (IC50) in assay [1] was 5.47 µM (active); in assay [2] it was > 32 µM (inactive); in assay [3] it was 136 µM (active); in “cells” it was 6.13 µM (active); with CHO, 3.21 µM (active); at Fatty acid synthase [8], 2.57 µM (active). Moreover, the IC50 on Beta Lactamase is 8.31 µM (active); at Fatty acid synthase [9] it was 5.11 µM (active). Also, the EC50 in assay [4] is 4.63 µM (active); on Beta-galactosidase, > 31.5 µM (inactive); on Protein RecA it was 1.27 µM (active); in assay [7], > 32 µM (inactive); at Mu-type opioid receptor, > 32 µM (inactive); in the assay on BJ, 2.82 µM (active). Besides, the EC50 in [16] was 6.43 µM (active). Further, the AC50 was 15.7 µM (active) in assay [5], 1.14 µM (active) in [6], 12.2 µM (active) in assay [11] and 7.22 µM (active) in assay [14]. The CC50 in [10] was 19.2 µM (active); in assay [12], 13.3 µM (active); in [15], 16.6 µM (active). The compound also showed a pIC50 in assay [13] of 4.52.
Regarding `O=C(NCCCn1ccnc1)c1cccc(S(=O)(=O)N2CCCCCC2)c1`, the AC50 in assay [17] is 27.2 µM (active); in [18], 18.9 µM (active).
With `COC(=O)N/N=C/c1ccc([N+](=O)[O-])o1`, the EC50 in assay [19] was > 195 µM (not active); in assay [20] it was > 60 µM (not active); in [21], 0.123 µM (active); in [22], 0.123 µM (active); in assay [23], 0.469 µM (active).
